Type in all cases: in vivo, mouse
The test system of experiment [1] is male C57BL/6 mice. The experiment is described as follows: Hair-growth efficacy test in catagen inhibition animal model, visual inspection, Centipeda minima extracts (Example 2-1). The settings on record: Day 5 after 7 days of administration (+12 day); topical 100 μL twice a day; dexamethasone-induced catagen. The source says:
To proceed with the hair-growth efficacy test in the catagen inhibition animal model of Centipeda minima extract, male C57BL/6 mice (5 weeks of age) were purchased and subjected to acclimation for 1 week and selected animals weighing 20 to 24 g. In the case of an animal in which skin damage occurred during hair removal, or if the skin color was black, the growth period was already in progress, so it was inappropriate for this experiment and was excluded from the experiment.
The test group was divided into a normal group, a negative control group, a test substance-administered group, and a positive control groups 1 and 2. The normal group had three mice, the negative control group had 4 mice, the test substance-administered group had 4 mice, and the positive control group 1 (Tofacitinib) had four mice, and the positive control group 2 (Minoxidil) had four mice. […]
Further, to quantify the results of hair-growth efficacy visual inspection, a black portion (anagen) or a region where hair-growth begins in the entire hair removal site (solvent or test substance, positive control substance application site) was visually observed. […]

Experiment [2] concerns male C57BL/6 mice. The experiment is described as follows: Skin tissue pathology test, H&E staining (Example 2-2). The following applies: H&E stained skin tissue, day 12. The method, then:
The skin tissue pathology test was conducted on day 12 by H&E staining using Hematoxylin and Eosin, which are widely used. A sample was collected from the skin tissue of the sacrificed animals and the generation of hair follicles and phenomena of hair-growth were identified through fixation, washing, clearing, paraffin infiltration, embedding, microtome cutting, staining and reading processes.

Experiment [3] relates to male C57BL/6 mice. Put plainly: Skin tissue pathology test, H&E staining (Example 1-2). The following applies: H&E stained skin tissue after end of experiment. The method, then: The skin tissue pathology test was conducted by H&E staining using Hematoxylin and Eosin, which are generally used widely. A sample was collected from the skin tissue of the sacrificed animals and the generation of hair follicles and phenomena of hair-growth were identified through fixation, washing, clearing, paraffin infiltration, embedding, microtome cutting, staining and reading processes.
In this study, Anagen_Early (A/e) indicates the state in which hair has just begun to develop and Anagen_late (A/l) and Catagen_early (C/e) indicate that hair-growth is in full swing. Anagen_late and Catagen_early have histologically similar positions of the hair bulb. When considering morphological changes according to tissue sections, it is necessary to consider that it is often unclear to distinguish there between. Nevertheless, the hair follicles in the Anagen_late and Catagen_early stages are generally considered as similar stages of development, and the results are interpreted.

Experiment [4] concerns male C57BL/6 mice. The experiment is described as follows: Hair-growth efficacy test in catagen inhibition animal model, visual inspection with image analysis (Example 1-1). The settings on record: values of individual mice. The source says:
To proceed with the hair-growth efficacy test in the catagen inhibition animal model of Centipeda minima extract, male C57BL/6 mice (5 weeks of age) were purchased and subjected to acclimation for 1 week and selected animals weighing 16 to 21 g. In the case of an animal in which skin damage occurred during hair removal, or if the skin color was black, the growth period was already in progress, so it was inappropriate for this experiment and was excluded from the experiment.
The test group was divided into a normal group, a negative control group, a test substance-administered group, and a positive control groups 1 and 2. Each of the normal group and the negative control group had 1 mouse, the test substance-administered group had 3 mice, and the positive control group 1 had two mice, and the positive control group 2 had one mouse. […]
Further, in order to quantify the results of hair-growth efficacy visual inspection, image analysis was performed on the entire epilation site (solvent or test substance, positive control substance application site) that is black (anagen) or a site where hair-growth begins. […] The result was quantified in %. […]

“And” between values parts separate entries of the source, which are not always exact repeats. Equal entries are not always repeated.

In the case of `C[C@@H]1CCN(C(=O)CC#N)C[C@@H]1N(C)c1ncnc2[nH]ccc12` [Tofacitinib], in the experiment on male C57BL/6 mice [1], the “Hair-growth efficacy (%)” value came out at 25%. Also, in the experiment with male C57BL/6 mice [2], the “hair follicle generation and hair-growth efficacy (skin histology, FIG. 9)” value was “only minimal hair follicle generation and hair-growth efficacy degree”.

Regarding “6-amino-1,2-dihydro-1-hydroxy-2-imino-4-phenoxypyrimidine [Minoxidil]”, in the experiment on male C57BL/6 mice [3], the “hair follicle generation and hair-growth efficacy (skin histology, FIG. 5)” value was “only minimal hair follicle generation and hair-growth efficacy degree”. The “Hair-growth efficacy (%)” value in the experiment on male C57BL/6 mice [1] is 45%. For the same compound, the “hair follicle generation and hair-growth efficacy (skin histology, FIG. 9)” value with male C57BL/6 mice [2] was “only minimal hair follicle generation and hair-growth efficacy degree”. The “hair-growth efficacy (image analysis of epilation site)” value in the experiment on male C57BL/6 mice [4] (Day 17 after administration, 0.1% dexamethasone to maintain catagen) is 6.1% and 21.2%. In the experiment on male C57BL/6 mice [4] (on 3 days of administration, topical 100 μL twice a day, dexamethasone-induced catagen), the “tendency to migrate to anagen (black/hair-growth area of epilation site, image analysis)” value is 0.1% and 0.3%.
